Source: the supplement of paper PMC4858399

Tests used:
Conditions in all cases: exposure time 48 h
[1] = system: Caenorhabditis elegans N2; test: AC50 for larval growth inhibition (Hill fit); higher = less potent
Procedure, shortened: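 Synchronised C. elegans N2 L1 larvae, 50 per well in 96-well plates, were grown at 20°C for 48 h in K-medium with killed OP50, 1% DMSO and 0.5–200 µM chemical. Worm size was read on a COPAS Biosort as extinction, log-transformed and averaged per well, and only wells holding at least 10 worms were kept. AC50 was obtained by a constrained Hill fit using weighted genetic-algorithm regression, with out-of-range values censored.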

[2] = system: Caenorhabditis elegans N2; test: mean nematode size ln(EXT) after 48 h, plate-adjusted (DMSO control set to 6) (ln(EXT), control-adjusted); higher = larger nematodes / less growth inhibition
Procedure, shortened: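 Chemical at 0.5–200 µM was tested on synchronised C. elegans N2 L1 larvae grown for 48 h at 20°C in K-medium with killed OP50 and 1% DMSO. Per-worm Biosort extinction, cleared of debris by a growth model, was natural-logged and averaged per well to give mean size. Plates were normalised by subtracting the vehicle control mean and adding 6.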

[3] = system: Caenorhabditis elegans N2; test: lowest effective concentration for larval growth inhibition (size below effect threshold); higher = less potent
Procedure, shortened: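 In 96-well plates, 50 C. elegans N2 L1 larvae per well were cultured at 20°C for 48 h in K-medium with killed bacteria and 1% DMSO, plus the chemical at 0.5, 1, 5, 10, 50, 100 or 200 µM. Size was measured as per-worm extinction on a Biosort and log-transformed into well means. Taking the first dose where the plate-adjusted mean size sits under 5.665 and stays there at higher doses gives the lowest effective concentration.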

SMILES | AC50 for larval growth inhibition [1] | mean nematode size ln(EXT) (ln) ([2]; 0.5 µM) | mean nematode size ln(EXT) (ln) ([2]; 1 µM) | mean nematode size ln(EXT) (ln) ([2]; 5 µM) | mean nematode size ln(EXT) (ln) ([2]; 10 µM) | mean nematode size ln(EXT) (ln) ([2]; 50 µM) | mean nematode size ln(EXT) (ln) ([2]; 100 µM) | mean nematode size ln(EXT) (ln) ([2]; 200 µM) | lowest effective concentration [3]
CCCCCCCCCCCCCCO [1-Tetradecanol] | 19.7 µM | 5.94 | 5.92 | 5.87 | 5.61 | 3.67 | 3.57 | 3.42 | 10 µM
CCCCCCCCCCCCCO [1-Tridecanol] | 15.4 µM | 5.9 | 5.76 | 5.58 | 5.34 | 3.57 | 3.5 | 3.54 | 5 µM
CCCCCCCCCCCO [1-Undecanol] | 18.4 µM | 5.77 | 6.01 | 5.84 | 5.7 | 3.79 | 3.74 | 4.93 | 50 µM
FC(F)(F)C(F)(F)C(F)(F)C(F)(F)C(F)(F)C(F)(F)CCI [1H,1H,2H,2H-Perfluorooctyl iodide] | 190 µM | 5.99 | 5.98 | 5.95 | 5.96 | 5.94 | 5.86 | 4.39 | 200 µM
Oc1ccc(C(c2ccc(O)cc2)C(Cl)(Cl)Cl)cc1 [2,2-Bis(4-hydroxyphenyl)-1,1,1-trichloroethane (HPTE)] | 66.9 µM | 6.16 | 6.15 | 6.1 | 6.01 | 5.25 | 4.61 | 4.12 | 50 µM
N#CC(Br)(Br)C(N)=O [2,2-Dibromo-3-nitrilopropionamide] | > 200 µM | 6.09 | 6.03 | 6.04 | 6.07 | 5.96 | 5.94 | 5.57 | 200 µM
Cc1ccc(C)c(O)c1C [2,3,6-Trimethylphenol] | > 200 µM | 5.88 | 6.02 | 5.94 | 5.93 | 5.93 | 5.9 | 5.65 | 200 µM
Oc1c(Cl)cc(Cl)cc1Cl [2,4,6-Trichlorophenol] | > 200 µM | 5.87 | 5.85 | 5.9 | 5.83 | 5.82 | 5.87 | 5.66 | 200 µM
CC(C)(C)c1cc(C(C)(C)C)c(O)c(C(C)(C)C)c1 [2,4,6-Tris(tert-butyl)phenol] | > 200 µM | 5.84 | 5.9 | 5.94 | 5.7 | 5.58 | 5.4 | 4.67 | 50 µM
CC(C)(c1ccccc1)c1ccc(O)c(C(C)(C)c2ccccc2)c1 [2,4-Bis(alpha,alpha-dimethylbenzyl)phenol] | 58.7 µM | 6 | 5.67 | 5.74 | 5.45 | 4.67 | 4.3 | 3.8 | 10 µM
CC(C)(C)c1ccc(O)c(C(C)(C)C)c1 [2,4-Di-tert-butylphenol] | 186 µM | 5.97 | 5.97 | 5.99 | 5.88 | 5.62 | 5.5 | 4.45 | 50 µM
Cc1ccc(N)cc1N [2,4-Diaminotoluene] | > 200 µM | 5.86 | 5.94 | 5.9 | 5.74 | 5.89 | 5.72 | 5.5 | 200 µM
O=[N+]([O-])c1ccc(O)c([N+](=O)[O-])c1 [2,4-Dinitrophenol] | > 200 µM | 5.82 | 5.79 | 5.78 | 5.83 | 5.83 | 5.75 | 5.52 | 200 µM
O=[N+]([O-])c1ccc(Oc2ccc(Cl)cc2Cl)cc1 [2,4-dichloro-1-(4-nitrophenoxy)benzene] | 5.16 µM | 5.88 | 5.74 | 5.03 | 3.93 | 3.8 | 3.76 | 4.04 | 5 µM
CC(C)(C)OOC(C)(C)CCC(C)(C)OOC(C)(C)C [2,5-Dimethyl-2,5-bis(tert-butylperoxy)hexane] | 185 µM | 5.81 | 5.83 | 5.81 | 5.79 | 5.78 | 5.79 | 4.23 | 200 µM
CCCOC(=O)c1ccc(C(=O)OCCC)nc1 [2,5-Pyridinedicarboxylic acid, dipropyl ester] | > 200 µM | 5.88 | 5.95 | 5.98 | 5.99 | 5.93 | 5.85 | 5.38 | 200 µM
CC(C)(C)c1cccc(C(C)(C)C)c1O [2,6-Di-tert-butylphenol] | > 200 µM | 6.07 | 5.99 | 6.03 | 6.07 | 5.91 | 5.88 | 5.19 | 200 µM
Nc1ccc2c(c1)C(=O)c1ccccc1C2=O [2-Aminoanthraquinone] | 53.9 µM | 6.17 | 5.82 | 5.77 | 5.81 | 5.75 | 4.42 | 5.14 | 100 µM
CCCCCC/C(C=O)=C\c1ccccc1 [2-Benzylideneoctanal] | 28.8 µM | 5.84 | 5.85 | 5.79 | 5.69 | 5.13 | 5.22 | 5.01 | 50 µM
